Assay results from PubChem BioAssay AID1918952 (Molecular Pharmacology Branch, DTP, NCI, 2023).

System: LG0703-F948-PDC complex spheroid viability
Assay: Anticancer human tumor LG0703-F948-PDC patient-derived lung adenocarcinoma cell line growth inhibition
Settings: for IC50: curve of first compound; for viability, T/C: stronger effect = lower value
From the text: Multicellular complex tumor spheroid response to LSD1 Inhibitor Iadademstat in combination with a variety of drugs and investigational agents in selected tumor cell lines
The current study was undertaken to assess response to LSD1 inhibitors in combination with standard-of-care drugs and investigational agents in solid tumor complex spheroid models as well as in the K-562 leukemia. Complex spheroids include a stromal component modeled by human endothelial cells (HUVEC) and fibroblasts modeled by human mesenchymal stem cells (MSCs). The concentration ranges selected for each drug and investigational agent were based upon clinically achievable concentrations if the clinical Cmax of the agent was known.
Compounds. The drugs and investigational agents used in this study are listed on Table 1. All of the agents used, including staurosporine (NSC755774) and gemcitabine (NSC613327), were obtained from the Developmental Therapeutics Program, NCI. FDA-approved anticancer drugs are available from the NCI at http://dtp.nci.nih.gov/branches/dscb/oncology_drugset_explanation.html. Drugs and investigational agents were >95% pure by proton nuclear magnetic resonance (NMR) and liquid chromatography/mass spectrometry (LC/MS). Stock solutions were prepared at 400x in DMSO, stored at -70 degrees C, and diluted in fresh medium prior to their use. The final concentration of DMSO in cell culture wells never exceeded 0.25% (v/v). The FDA-approved anticancer drug set is available from the Developmental Therapeutics Program at https://dtp.cancer.gov/organization/dscb/obtaining/available_plates.htm. All drugs and investigational agents were tested over a range starting from a high concentration at or near the clinical Cmax and decreasing in half-log increments. If the clinical Cmax for an agent had not been determined, the highest concentration tested was 10 microM.
Cell Lines. The patient-derived cancer cell (PDC) lines: 292921-168-R-J2-PDC, K24384-001-R-PDC, and 521955-158-R2-J5-PDC pancreatic carcinomas, 556581-035-R-J1 ovarian carcinoma, 324938-238-R-J1-PDC, 855422-203-R-J1-PDC and 883617-216-R-J1-PDC urothelial bladder carcinomas, 743489-274-T-PDC renal cell carcinoma, 138582-R-J1 Merkel cell tumor, K60290-347-R-J1 and K57222-313-R-J1-PDC glioblastomas, 653999-131-R-J2-PDC, LG0703-F948-PDC, and 349418-098-R-PDC non-small cell lung carcinomas, 885512-296-R-J2-PDC, 171881-019-R-J1-PDC breast carcinomas and 186277-243-T-J2-PDC and 233499-124-R-J2-PDC colon carcinomas were obtained from the NCI Patient-Derived Models Repository (PDMR, https://pdmr.cancer.gov). The established cell lines NCI/ADR-RES (RRID:CVCL_14520 and OVCAR-5 (RRID:CVCL_1628) ovarian carcinomas, 786-O (RRID:CVCL_1051) and A498 (RRID:CVCL_A498) renal cell carcinoma, NCI-H211 (ATCC, cat. CRL-5824; RRID:CVCL_1529), NCI-H196 (ATCC, cat. CRL-5823, RRID:CVCL_1509), SW 1271 (ATCC, cat. CRL-2177, RRID:CVCL_1716) and NCI-H1876 (ATCC, cat. CRL-5902, RRID:CVCL_1503) small cell lung carcinomas, MDA-MB-231 (RRID:CVCL_0062) and MDA-MB-468 (RRID:CVCL_0419)breast carcinomas (10-12). Pooled donor human umbilical vein endothelial cells (HUVEC, Lonza, cat. CC-2519) and human mesenchymal stem cells (hMSC, Lonza, cat. PT-2501) were purchased from Lonza (Walkersville, MD).
Cell Culture. All cells were maintained in an incubator at 37 degrees C and 5% CO2 with 95% humidity. The PDC lines were cultured according to standard operating procedures established by the NCI PDMR (https://pdmr.cancer.gov). Briefly all PDCs were thawed and cultured in Matrigel-coated flasks prepared with a working solution of 1X Ham's F-12 nutrient mix, without supplementation (Invitrogen, Waltham, MA, cat. 11765054), 100 U/mL penicillin-streptomycin (Invitrogen, cat. 15140122), and 2.5% Matrigel (Corning Inc., Corning, NY, cat. 354248) for the first three passages. […]

[1] = second compound 0.1 µM, first compound 0.000949 µM
[2] = second compound 0.1 µM, first compound 0.003 µM
[3] = second compound 0.1 µM, first compound 0.00949 µM
[4] = second compound 0.1 µM, first compound 0.03 µM
[5] = second compound 0.1 µM, first compound 0.0949 µM
[6] = second compound 0.1 µM, first compound 0.3 µM
[7] = second compound 0.316 µM, first compound 0.000949 µM
[8] = second compound 0.316 µM, first compound 0.003 µM
[9] = second compound 0.316 µM, first compound 0.00949 µM
[10] = second compound 0.316 µM, first compound 0.03 µM
[11] = second compound 0.316 µM, first compound 0.0949 µM
[12] = second compound 0.316 µM, first compound 0.3 µM
[13] = second compound 1 µM, first compound 0.000949 µM
[14] = second compound 1 µM, first compound 0.003 µM
[15] = second compound 1 µM, first compound 0.00949 µM
[16] = second compound 1 µM, first compound 0.03 µM
[17] = second compound 1 µM, first compound 0.0949 µM
[18] = second compound 1 µM, first compound 0.3 µM
[19] = second compound 3.16 µM, first compound 0.000949 µM
[20] = second compound 3.16 µM, first compound 0.003 µM
[21] = second compound 3.16 µM, first compound 0.00949 µM
[22] = second compound 3.16 µM, first compound 0.03 µM
[23] = second compound 3.16 µM, first compound 0.0949 µM
[24] = second compound 3.16 µM, first compound 0.3 µM
[25] = second compound 10 µM, first compound 0.000949 µM
[26] = second compound 10 µM, first compound 0.003 µM
[27] = second compound 10 µM, first compound 0.00949 µM
[28] = second compound 10 µM, first compound 0.03 µM
[29] = second compound 10 µM, first compound 0.0949 µM
[30] = second compound 10 µM, first compound 0.3 µM
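Also: spheroids exposed to agents for seven days before readout.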
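For viability, T/C in this document: 100% = DMSO vehicle control wells as normalization base.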

Structure (SMILES)	IC50 (second compound 0.1 µM) [nM]	IC50 (second compound 0.316 µM) [nM]	IC50 (second compound 1 µM) [nM]	IC50 (second compound 3.16 µM) [nM]	IC50 (second compound 10 µM) [nM]	viability, T/C [1] [%]	viability, T/C [2] [%]	viability, T/C [3] [%]	viability, T/C [4] [%]	viability, T/C [5] [%]	viability, T/C [6] [%]	viability, T/C [7] [%]	viability, T/C [8] [%]	viability, T/C [9] [%]	viability, T/C [10] [%]	viability, T/C [11] [%]	viability, T/C [12] [%]	viability, T/C [13] [%]	viability, T/C [14] [%]	viability, T/C [15] [%]	other results
CCc1c2c(nc3ccc(O)cc13)-c1cc3c(c(=O)n1C2)COC(=O)[C@]3(O)CC + NC1CC1c1ccc(-c2cccc(O)c2)cc1	1.2	1.31	2.33	3.09	2.61	55.8	29.2	21.3	11.7	5.98	3.08	54.8	37.7	24.2	12.6	5.51	2.54	68.2	44.7	25.4	viability, T/C [16]: 11.7%; viability, T/C [17]: 5.78%; viability, T/C [18]: 2.05%; viability, T/C [19]: 69.9%; viability, T/C [20]: 49.7%; viability, T/C [21]: 29.8%; viability, T/C [22]: 12.2%; viability, T/C [23]: 2.96%; viability, T/C [24]: 1.53%; viability, T/C [25]: 68.4%; viability, T/C [26]: 47.3%; viability, T/C [27]: 23.1%; viability, T/C [28]: 8%; viability, T/C [29]: 1.01%; viability, T/C [30]: 0.49%
Nc1ccn(C2OC(CO)C(O)C2(F)F)c(=O)n1 (stereo not given) + NC1CC1c1ccc(-c2cccc(O)c2)cc1	12.6	74.2	100	145	> 300	79	50.8	51.9	56.6	43.9	32.3	70.2	63.9	66.8	54	48.9	37.6	76.9	66.5	63.6	viability, T/C [16]: 60.1%; viability, T/C [17]: 51.9%; viability, T/C [18]: 40.3%; viability, T/C [19]: 81.5%; viability, T/C [20]: 80.6%; viability, T/C [21]: 87.3%; viability, T/C [22]: 66%; viability, T/C [23]: 57.1%; viability, T/C [24]: 41.4%; viability, T/C [25]: 87%; viability, T/C [26]: 78.3%; viability, T/C [27]: 83.9%; viability, T/C [28]: 68.9%; viability, T/C [29]: 59%; viability, T/C [30]: 51.5%
